Results on one compound are retold here after patent publication US20210106708A1, “THERMORESPONSIVE COMPOSITIONS AND METHODS FOR PREVENTING AND DISRUPTING BIOFILMS” (CASE WESTERN RESERVE UNIVERSITY, priority 2018, published 2021).

Each structure is given as a SMILES string. Entries after “also recorded” stand apart in the source; their conditions may differ. Structures can show the parent of a compound that is named as a salt.

Series [1] deals with S. aureus biofilms. Kind of series: Biofilm dispersal assay (crystal violet stain). It is filed as cell-based. As for the experimental part:
S. aureus were cultured overnight in agar plates or in lysogeny broth (LB) with agitation (200 rpm) at 37° C. Biofilm formation was evaluated under static conditions using 12-well plates (Falcon, USA). Bacterial cultures made overnight were diluted to an OD595 of 0.1 and further diluted 100× (˜10^5 CFU/mL) in modified tryptic soy broth (3% NaCl, 0.5% glucose) and each well was filled with 2 mL of the diluted bacterial solution and incubated at 37° C. for 24 h. Biofilm dispersal activities were evaluated by removing the culture media from the biofilms after 24 h and replacing it with saline solution (0.9% NaCl) containing either individual or a combination of amino acids at the specified concentrations (pH 7.4), or the other antimicrobial agents used in the clinic (vancomycin, bacitracin, NeutroPhase, Hibiclens). After exposure to the different treatment methods, the plates were gently washed with phosphate buffered saline (PBS, 1×) thrice and then stained with 500 μL of 0.1% (w/v) crystal violet for 30 min. The wells were then washed with PBS and the crystal violet stain was solubilized with 30% acetic acid. The solution was diluted 20 times and biofilm biomass was estimated by measuring the crystal violet stained biofilm remnants, which absorbs at 595 nm.

Series [2] deals with HeLa cells. The experiment in a line: PrestoBlue cell viability assay. It is filed as cell-based. Particulars: 200 mM vancomycin; 2 and 24 h incubation; hydrochloride. As for the experimental part:
HeLa cells were cultured in Dulbecco's Modified Eagle Medium supplemented with 10% fetal bovine serum and 1% penicillin/streptomycin at 37° C. in 5% CO2 in a humidified atmosphere. The cells were seeded to 100% confluence in clear 96-well tissue culture plates (Costar, Corning, N.Y., USA) for 24 h. The cells were then exposed to the different treatments in media and incubated for the specified time. After treatment, the cells were washed in sterile phosphate buffered saline and incubated in 100 μL/well of DMEM (10% FBS, 1% penicillin/streptomycin). Cell viability was evaluated using the PrestoBlue assay (Invitrogen, USA), following the manufacturer's instructions. Briefly, 10 μL of PrestoBlue assay reagent was directly added to each well and the plates were incubated at the cell culture incubator (37° C. and 5% CO2) for 2 h. The absorbance at 570 and 600 nm were then measured using a SpectraMax i3 microplate reader (Molecular Device Inc., Sunnyvale, Calif.). All assays were performed in triplicates.

On to `CN[C@H](CC(C)C)C(=O)N[C@H]1C(=O)N[C@@H](CC(N)=O)C(=O)N[C@H]2C(=O)N[C@H]3C(=O)N[C@H](C(=O)N[C@H](C(=O)O)c4cc(O)cc(O)c4-c4cc3ccc4O)[C@H](O)c3ccc(c(Cl)c3)Oc3cc2cc(c3O[C@@H]2O[C@H](CO)[C@@H](O)[C@H](O)[C@H]2O[C@H]2C[C@](C)(N)[C@H](O)[C@H](C)O2)Oc2ccc(cc2Cl)[C@H]1O` [vancomycin, vancomycin hydrochloride], for which the biofilm disruption result is “promising results” in series [1] (200 mM vancomycin, 24 h incubation) and “do not disrupt preformed biofilms” in series [1] (2 to 256 ppm, 24 h, preformed biofilms). In addition, the in vitro cytotoxicity result in series [2] was “extremely toxic; also recorded: extreme cell toxicity”.
